What is called MIC is the lowest concentration found to suppress growth.

The record followed here is patent publication US9802901B2, “Antibacterial 2H-indazole derivatives” (priority 2013, dated 2017).

Values after ≈ are worked out from the molar mass of the structure shown. Some results are limits rather than exact numbers.

Common to all, as to assay: Bacterial growth minimal inhibitory concentration (broth microdilution, CLSI M7-A7)
In general terms: In broth dilution the organism is exposed to a series of concentrations in liquid medium.

Experiment [1] concerns P. aeruginosa ATCC27853. The format is cell-based, Pseudomonas aeruginosa. Particulars: cation-adjusted Mueller-Hinton Broth, microdilution, quinolone-sensitive strain; for MIC: Pseudomonas aeruginosa, ATCC27853, read-out: MIC for P. aeruginosa ATCC27853. As to the method: (§1) Minimal Inhibitory Concentrations (MICs; mg/L) were determined in cation-adjusted Mueller-Hinton Broth by a microdilution method following the description given in “Methods for Dilution Antimicrobial Susceptibility Tests for Bacteria that Grow Aerobically”, Approved standard, 7th ed., Clinical and Laboratory Standards Institute (CLSI) Document M7-A7, Wayne, Pa., USA (2006).
(§2) All Example compounds, except the compound of Example 62, were tested against several Gram-positive and Gram-negative bacteria. […] K. pneumoniae A-651 and Acinetobacter baumannii T6474 are multiply-resistant strains (in particular quinolone-resistant), while E. coli ATCC25922 and P. aeruginosa ATCC27853 are quinolone-sensitive strains.

Experiment [2] concerns K. pneumoniae A-651. The format is cell-based, Klebsiella pneumoniae. Particulars: cation-adjusted Mueller-Hinton Broth, microdilution, multiply-resistant (quinolone-resistant) strain; for MIC: Klebsiella pneumoniae, A651, read-out: MIC for K. Pneumoniae A-651. How it is done: as §1, §2
For experiment [3], the system named is Acinetobacter baumannii T6474. It is filed as cell-based. Particulars: cation-adjusted Mueller-Hinton Broth, microdilution, multiply-resistant (quinolone-resistant) strain; for MIC: Acinetobacter baumannii, T6474, read-out: MIC for A. Baumannii T6474. How it is done:
as §1, §2

For experiment [4], the system named is E. coli ATCC25922. The format is cell-based, Escherichia coli. Particulars: cation-adjusted Mueller-Hinton Broth, microdilution, quinolone-sensitive strain; for MIC: Escherichia coli, ATCC25922, read-out: MIC for E. coli ATCC25922. How it is done: as §1, §2

Consider `CC(CCn1cc2cc(-c3ccc(-c4ncco4)cc3)ccc2n1)(C(=O)NO)S(C)(=O)=O.O=CO` (racemic) [RE6, (RS)—N-hydroxy-2-methylsulfonyl-2-methyl-4-[5-(4-oxazol-2-yl-phenyl)-indazol-2-yl]-butanamide formic acid salt], for which the MIC in experiment [1] came out at 8 µg/mL; in experiment [2], 0.25 µg/mL; in experiment [3], 4 µg/mL; in experiment [4], 0.125 µg/mL.
In the case of `C[C@@](CCn1cc2cc(C#CC#CC3CCN(C(=O)CN)CC3)ccc2n1)(C(=O)NO)S(C)(=O)=O.O=CO` [Example 83, (R)-4-(5-((1-glycylpiperidin-4-yl)buta-1,3-diyn-1-yl)-2H-indazol-2-yl)-N-hydroxy-2-methyl-2-(methylsulfonyl)butanamide formate], the minimum inhibitory concentration (MIC) came out at 4 µg/mL in experiment [1], 8 µg/mL in experiment [2], 32 µg/mL in experiment [3] and 2 µg/mL in experiment [4].
For `COCCOc1ccc(-c2ccc3nn(CC[C@](C)(C(=O)NO)S(C)(=O)=O)cc3c2)cc1` [Example 52, (R)—N-hydroxy-4-(5-(4-(2-methoxyethoxy)phenyl)-2H-indazol-2-yl)-2-methyl-2-(methylsulfonyl)butanamide], the MIC in experiment [1] is 2 µg/mL (≈ 4.33 µM); in experiment [2], 0.5 µg/mL (≈ 1.08 µM); in experiment [3], 1 µg/mL (≈ 2.17 µM); in experiment [4], 0.125 µg/mL (≈ 0.271 µM).
As for `C[C@@H](O)c1ccc(C#Cc2ccc3nn(CC[C@](C)(C(=O)NO)S(C)(=O)=O)cc3c2)cc1` [Example 33, (R)—N-hydroxy-4-(5-((4-((R)-1-hydroxyethyl)phenyl)ethynyl)-2H-indazol-2-yl)-2-methyl-2-(methylsulfonyl)butanamide], the MIC in experiment [1] is 0.5 µg/mL (≈ 1.1 µM); in experiment [2], 0.125 µg/mL (≈ 0.274 µM); in experiment [3], 2 µg/mL (≈ 4.39 µM); in experiment [4], 0.063 µg/mL (≈ 0.138 µM).
For `CC#CCOc1ccc2nn(CCC(C)(C(=O)NO)S(C)(=O)=O)cc2c1` (racemic) [RE4, (RS)-4-(5-but-2-ynyloxy-indazol-2-yl)-N-hydroxy-2-methylsulfonyl-2-methyl-butanamide], in that order: 8 µg/mL (≈ 21.1 µM), 8 µg/mL (≈ 21.1 µM), 32 µg/mL (≈ 84.3 µM) and 4 µg/mL (≈ 10.5 µM).
Take `C[C@@](CCn1cc2cc(C#CC#CC3(O)COC3)c(F)cc2n1)(C(=O)NO)S(C)(=O)=O` [Example 31, (R)-4-{6-fluoro-5-[4-(3-hydroxy-oxetan-3-yl)-buta-1,3-diynyl]-indazol-2-yl}-N-hydroxy-2-methylsulfonyl-2-methyl-butanamide]: the MIC was 2 µg/mL (≈ 4.45 µM) in experiment [1], 1 µg/mL (≈ 2.22 µM) in experiment [2], more than 32 µg/mL in experiment [3] and 1 µg/mL (≈ 2.22 µM) in experiment [4].
For the molecule `C[C@]1(CO)C[C@@H]1C#CC#Cc1ccc2nn(CC[C@](C)(C(=O)NO)S(C)(=O)=O)cc2c1` [Example 69], in experiment [1], the “MIC for P. aeruginosa ATCC27853” value stood at 0.25 µg/mL. Besides, the “MIC for K. Pneumoniae A-651” value in experiment [2] was found to be 0.125 µg/mL. In addition, the “MIC for A. Baumannii T6474” value in experiment [3] is 2 µg/mL. Also, the “MIC for E. coli ATCC25922” value in experiment [4] is recorded as “≦0.063 mg/L”.
In the case of `C[C@@](CCn1cc2cc(-c3ccc(OC(F)(F)F)cc3F)ccc2n1)(C(=O)NO)S(C)(=O)=O` [Example 35, (R)-4-[5-(2-fluoro-4-trifluoromethoxy-phenyl)-indazol-2-yl]-N-hydroxy-2-methylsulfonyl-2-methyl-butanamide], the MIC in experiment [1] is 4 µg/mL (≈ 8.17 µM); in experiment [2], 0.5 µg/mL (≈ 1.02 µM); in experiment [3], 0.25 µg/mL (≈ 0.511 µM); in experiment [4], 0.125 µg/mL (≈ 0.255 µM).
For `C[C@@](CCn1cc2cc(C#Cc3ccc(C4(N)COC4)cc3)ccc2n1)(C(=O)NO)S(C)(=O)=O.Cc1ccc(S(=O)(=O)O)cc1` [Example 10, (R)-4-{5-[4-(3-amino-oxetan-3-yl)-phenylethynyl]-indazol-2-yl}-N-hydroxy-2-methylsulfonyl-2-methyl-butanamide toluene-4-sulfonate], in that order: 2 µg/mL, 0.5 µg/mL, 2 µg/mL and 0.5 µg/mL.
For `C[C@@](CCn1cc2cc(C#Cc3ccc(NC(=O)CO)cc3)ccc2n1)(C(=O)NO)S(C)(=O)=O` [Example 47, (R)—N-hydroxy-4-(5-((4-(2-hydroxyacetamido)phenyl)ethynyl)-2H-indazol-2-yl)-2-methyl-2-(methylsulfonyl)butanamide], the minimal inhibitory concentration (MIC) in experiment [1] turned out to be 1 µg/mL (≈ 2.06 µM); in experiment [2] it was 0.5 µg/mL (≈ 1.03 µM); in experiment [3], 1 µg/mL (≈ 2.06 µM); in experiment [4], 0.25 µg/mL (≈ 0.516 µM).
For `CC(CCn1cc2cc(C#Cc3ccc(C4(O)COC4)cc3)c(F)cc2n1)(C(=O)NO)S(C)(=O)=O` (centres unmarked) [Example 40, 4-(6-fluoro-5-((4-(3-hydroxyoxetan-3-yl)phenyl)ethynyl)-2H-indazol-2-yl)-N-hydroxy-2-methyl-2-(methylsulfonyl)butanamide], the MIC in experiment [1] amounted to 1 µg/mL (≈ 1.99 µM); in experiment [2], 0.25 µg/mL (≈ 0.498 µM); in experiment [3], 1 µg/mL (≈ 1.99 µM); in experiment [4] it was 0.125 µg/mL (≈ 0.249 µM).
Consider `C[C@@](CCn1cc2cc(C#CC#CC3CN(C(=O)CN)C3)ccc2n1)(C(=O)NO)S(C)(=O)=O` [Example 84, (R)-4-(5-((1-glycylazetidin-3-yl)buta-1,3-diyn-1-yl)-2H-indazol-2-yl)-N-hydroxy-2-methyl-2-(methylsulfonyl)butanamide], for which the minimum inhibitory concentration (MIC) was 0.5 µg/mL (≈ 1.06 µM) in experiment [1], 4 µg/mL (≈ 8.48 µM) in experiment [2], more than 32 µg/mL in experiment [3] and 1 µg/mL (≈ 2.12 µM) in experiment [4].
On the same counts, the results for `CC(C)(O)C#CC#Cc1ccc2nn(CC[C@](C)(C(=O)NO)S(C)(=O)=O)cc2c1` [Example 32, (R)—N-hydroxy-4-[5-(5-hydroxy-5-methyl-hexa-1,3-diynyl)-indazol-2-yl]-2-methylsulfonyl-2-methyl-butanamide] are 1 µg/mL (≈ 2.4 µM), 0.5 µg/mL (≈ 1.2 µM), 32 µg/mL (≈ 76.6 µM) and 0.5 µg/mL (≈ 1.2 µM).
Turning to `C[C@@](O)(C#CC#Cc1ccc2nn(CC[C@](C)(C(=O)NO)S(C)(=O)=O)cc2c1)CO` [Example 46, (R)-4-(5-((R)-5,6-dihydroxy-5-methylhexa-1,3-diyn-1-yl)-2H-indazol-2-yl)-N-hydroxy-2-methyl-2-(methylsulfonyl)butanamide], the MIC in experiment [1] is 4 µg/mL (≈ 9.23 µM); in experiment [2] it was 8 µg/mL (≈ 18.5 µM); in experiment [3] it was more than 32 µg/mL; in experiment [4], 4 µg/mL (≈ 9.23 µM).
For `CC(CCn1cc2cc(-c3ccc(OCCN4CCOCC4)cc3F)ccc2n1)(C(=O)NO)S(C)(=O)=O.O=CO` (racemic) [RE3, (RS)-4-{5-[2-fluoro-4-(2-morpholin-4-yl-ethoxy)-phenyl]-indazol-2-yl}-N-hydroxy-2-methylsulfonyl-2-methyl-butanamide formic acid salt], the minimal inhibitory concentration (MIC) in experiment [1] stood at 8 µg/mL; in experiment [2], 2 µg/mL; in experiment [3], 8 µg/mL; in experiment [4], 1 µg/mL.
In the case of `C[C@@](CCn1cc2cc(C#CC#CC3(O)CCOCC3)ccc2n1)(C(=O)NO)S(C)(=O)=O` [Example 15, (R)—N-hydroxy-4-(5-((4-hydroxytetrahydro-2H-pyran-4-yl)buta-1,3-diyn-1-yl)-2H-indazol-2-yl)-2-methyl-2-(methylsulfonyl)butanamide], the MIC in experiment [1] is 2 µg/mL (≈ 4.35 µM); in experiment [2] it was 2 µg/mL (≈ 4.35 µM); in experiment [3], more than 32 µg/mL; in experiment [4], 2 µg/mL (≈ 4.35 µM).
In the case of `C[C@@](CCn1cc2cc(C#Cc3ccc(CO)cc3F)ccc2n1)(C(=O)NO)S(C)(=O)=O` [Example 39, (R)-4-[5-(2-fluoro-4-hydroxymethyl-phenylethynyl)-indazol-2-yl]-N-hydroxy-2-methylsulfonyl-2-methyl-butanamide], the MIC in experiment [1] amounted to 1 µg/mL (≈ 2.18 µM); in experiment [2], 0.125 µg/mL (≈ 0.272 µM); in experiment [3], 0.25 µg/mL (≈ 0.544 µM); in experiment [4], 0.125 µg/mL (≈ 0.272 µM).
`C[C@@](CCn1cc2cc(C#CC#CC3(CO)CC3)ccc2n1)(C(=O)NO)S(C)(=O)=O` [Example 56, (R)—N-hydroxy-4-(5-((1-(hydroxymethyl)cyclopropyl)buta-1,3-diyn-1-yl)-2H-indazol-2-yl)-2-methyl-2-(methylsulfonyl)butanamide]: the MIC in experiment [1] is 0.5 µg/mL (≈ 1.16 µM); in experiment [2], 0.5 µg/mL (≈ 1.16 µM); in experiment [3], more than 32 µg/mL; in experiment [4], 0.25 µg/mL (≈ 0.582 µM).
On to `C[C@@](CCn1cc2cc(-c3ccc(OC[C@H](O)CO)cc3F)ccc2n1)(C(=O)NO)S(C)(=O)=O` [Example 58, (R)-4-(5-(4-((R)-2,3-dihydroxypropoxy)-2-fluorophenyl)-2H-indazol-2-yl)-N-hydroxy-2-methyl-2-(methylsulfonyl)butanamide], for which the MIC in experiment [1] amounted to 2 µg/mL (≈ 4.04 µM); in experiment [2], 4 µg/mL (≈ 8.07 µM); in experiment [3], 8 µg/mL (≈ 16.1 µM); in experiment [4] it was 2 µg/mL (≈ 4.04 µM).
Regarding `C[C@@](CCn1cc2cc(C#Cc3ccc(CCO)cc3)ccc2n1)(C(=O)NO)S(C)(=O)=O` [Example 25, (R)—N-hydroxy-4-{5-[4-(2-hydroxy-ethyl)-phenylethynyl]-indazol-2-yl}-2-methylsulfonyl-2-methyl-butanamide], the MIC in experiment [1] was found to be 0.5 µg/mL (≈ 1.1 µM); in experiment [2] it was 0.063 µg/mL (≈ 0.138 µM); in experiment [3], 0.5 µg/mL (≈ 1.1 µM); in experiment [4], 0.063 µg/mL (≈ 0.138 µM).
